In the oligonucleotide strings, read from the 5' end, every base follows the letter of its sugar. An asterisk marks phosphorothioate; unmarked linkages are phosphodiester. Other units and linkages are bracketed, terminal groups are in braces. A string of capitals states the bases alone. d = 2'-deoxy (DNA); m = 2'-O-methyl; f = 2'-fluoro
Tests used:
Assay type in all cases: cell-based, human
AR FL(1) = assay: AR protein knock-down by Western blot after siRNA transfection in 22RV1 cells: AR FL(1); settings: 5 nM siRNA, 50 h post transfection, compared to controls
Experimental: (§1) In some instances, a set of AR siRNAs were identified that were predicted to be specific in human and non-human primates (NHP) and cross-reactive with NHPs but not rodent AR mRNA. To identify AR siRNAs that regulate both full length AR and clinically relevant AR splice variants, the search for AR siRNAs was focused primarily, but not exclusively, on exons 1, 2 and 3 of the AR gene, which are common to most AR isoforms. The resulting set of 50 AR siRNAs (Tables 1-3) was assessed in two prostate cancer lines that express high levels of either clinically relevant AR splice variants (22RV1, ATCC) or a full length AR T877A LBD mutant (LNCaP, ATCC). The response of LNCaP tumors in xenograft models to AR antagonists is known to correlate well with clinical responses.
(§2) To monitor their ability to downregulate various AR isoforms, each siRNA was formulated at a single final concentration of 5 nM with a commercially-available transfection reagent (Lipofectamine RNAiMAX, Life Technologies) according to the manufacturer's “forward transfection” instructions. At 50 h (22RV1) and 72 h (LNCaP) post transfection, cells were harvested, and lysed in RIPA buffer (Pierce) supplemented with HALT protease inhibitors (Pierce) using standard procedures. The protein concentration was determined using a BCA protein concentration kit (Pierce). To monitor AR levels in these lysates, proteins (30 ug/lane) were separated by PAGE on BOLT 4-12% Bis-Tris PA gels (Life Technologies), transferred to nitrocellulose using an iBlot dry blot system (Thermo Fisher), and probed with specific antibodies against a region of the N-terminal domain of human AR that is common in known clinically relevant splice variants (N20, Santa Cruz Biotech). A second antibody against α-Tubulin was used as control (P16, Santa Cruz Biotech). Levels of these proteins in the respective cell lysates were quantified on an Odyssey imaging system (LICOR) using appropriate secondary antibodies linked to IRDyes (800CW, 680RD).

AR-SV(2) = assay: AR protein knock-down by Western blot after siRNA transfection in 22RV1 cells: AR-SV(2); settings: 5 nM siRNA, 50 h post transfection, compared to controls
Experimental: as §1, §2

AR-SV(3) = assay: AR protein knock-down by Western blot after siRNA transfection in 22RV1 cells: AR-SV(3); settings: 5 nM siRNA, 50 h post transfection, compared to controls
Experimental: as §1, §2

[1] = test system: AR FL (full length AR T877A LBD mutant); assay: AR protein knock-down by Western blot after siRNA transfection in LNCaP cells: AR FL; settings: 5 nM siRNA, 72 h post transfection, compared to controls
Experimental: as §1, §2

Row | Substance | % KD AR Protein 22RV1 AR FL(1) (AR FL(1)) [%] | % KD AR Protein 22RV1 AR-SV(2) (AR-SV(2)) [%] | % KD AR Protein 22RV1 AR-SV(3) (AR-SV(3)) [%] | % KD AR Protein LNCaP AR FL [1] [%]
1 | XD-01847: AR siRNA with chemical modification, Id # 3020; sense X05389 (SEQ ID NO: 219), antisense X05390 (SEQ ID NO: 220) (sense mUmGfGmUfAmAfUmCfUmGfAmAfAmCfUmAfCmAfGdT*dT; antisense fCfUmGfUmAfGmUfUmUfCmAfGmAfUmUfAmCfCmAdT*dT) | 28 | −10 | −68 | 69
2 | XD-01858: AR siRNA with chemical modification, Id # 3475; sense X05411 (SEQ ID NO: 241), antisense X05412 (SEQ ID NO: 242) (sense mGmAfAmUfGmAfGmGfCmAfCmCfUmCfUmCfUmCfAdT*dT; antisense fUfGmAfGmAfGmAfGmGfUmGfCmCfUmCfAmUfUmCdT*dT) | 93 | 25 | 66 | 99
3 | XD-01823: AR siRNA with chemical modification, Id # 2739; sense X05341 (SEQ ID NO: 171), antisense X05342 (SEQ ID NO: 172) (sense mAmCfUmGfCmCfAmGfGmGfAmCfCmAfUmGfUmUfUdT*dT; antisense fAfAmAfCmAfUmGfGmUfCmCfCmUfGmGfCmAfGmUdT*dT) | −5 | 0 | −19 | 79
4 | XD-01852: AR siRNA with chemical modification, Id # 3218; sense X05399 (SEQ ID NO: 229), antisense X05400 (SEQ ID NO: 230) (sense mGmCfUmCfUmCfUmAfGmCfCmUfCmAfAmUfGmAfAdT*dT; antisense fUfUmCfAmUfUmGfAmGfGmCfUmAfGmAfGmAfGmCdT*dT) | 16 | 8 | 10 | 34
5 | XD-01851: AR siRNA with chemical modification, Id # 3217; sense X05397 (SEQ ID NO: 227), antisense X05398 (SEQ ID NO: 228) (sense mUmGfCmUfCmUfCmUfAmGfCmCfUmCfAmAfUmGfAdT*dT; antisense fUfCmAfUmUfGmAfGmGfCmUfAmGfAmGfAmGfCmAdT*dT) | 50 | 2 | 8 | 84
6 | XD-01841: AR siRNA with chemical modification, Id # 2936; sense X05377 (SEQ ID NO: 207), antisense X05378 (SEQ ID NO: 208) (sense mCmCfGmAfAmGfGmAfAmAfAmAfUmUfGmUfCmCfAdT*dT; antisense fUfGmGfAmCfAmAfUmUfUmUfUmCfCmUfUmCfGmGdT*dT) | 85 | 85 | 74 | 99
7 | XD-01859: AR siRNA with chemical modification, Id # 3481; sense X05413 (SEQ ID NO: 243), antisense X05414 (SEQ ID NO: 244) (sense mGmGfCmAfCmCfUmCfUmCfUmCfAmAfGmAfGmUfUdT*dT; antisense fAfAmCfUmCfUmUfGmAfGmAfGmAfGmGfUmGfCmCdT*dT) | 87 | −23 | −49 | 100
8 | XD-01855: AR siRNA with chemical modification, Id # 3462; sense X05405 (SEQ ID NO: 235), antisense X05406 (SEQ ID NO: 236) (sense mAmGfCmCfAmGfUmGfUmGfUmCfCmGfAmAfUmGfAdT*dT; antisense fUfCmAfUmUfCmGfGmAfCmAfCmAfCmUfGmGfCmUdT*dT) | 12 | −1 | −18 | 75
9 | XD-01860: AR siRNA with chemical modification, Id # 3629; sense X05415 (SEQ ID NO: 245), antisense X05416 (SEQ ID NO: 246) (sense mAmCfUmCfGmAfUmCfGmUfAmUfCmAfUmUfGmCfAdT*dT; antisense fUfGmCfAmAfUmGfAmUfAmCfGmAfUmCfGmAfGmUdT*dT) | 90 | −9 | 4 | 99
10 | XD-01835: AR siRNA with chemical modification, Id # 2924; sense X05365 (SEQ ID NO: 195), antisense X05366 (SEQ ID NO: 196) (sense mUmAfUmUfGmAfUmAfAmAfUmUfCmCfGmAfAmGfGdT*dT; antisense fCfCmUfUmCfGmGfAmAfUmUfUmAfUmCfAmAfUmAdT*dT) | 89 | 85 | 83 | 92
11 | XD-01842: AR siRNA with chemical modification, Id # 2940; sense X05379 (SEQ ID NO: 209), antisense X05380 (SEQ ID NO: 210) (sense mAmGfGmAfAmAfAmAfUmUfGmUfCmCfAmUfCmUfUdT*dT; antisense fAfAmGfAmUfGmGfAmCfAmAfUmUfUmUfUmCfCmUdT*dT) | 89 | 94 | 84 | 101
12 | XD-01843: AR siRNA with chemical modification, Id # 2961; sense X05381 (SEQ ID NO: 211), antisense X05382 (SEQ ID NO: 212) (sense mCmGfUmCfUmUfCmGfGmAfAmAfUmGfUmUfAmUfGdT*dT; antisense fCfAmUfAmAfCmAfUmUfUmCfCmGfAmAfGmAfCmGdT*dT) | 78 | 75 | 47 | 94
13 | XD-01831: AR siRNA with chemical modification, Id # 2847; sense X05357 (SEQ ID NO: 187), antisense X05358 (SEQ ID NO: 188) (sense mGmGfAmAfGmCfUmGfCmAfAmGfGmUfCmUfUmCfUdT*dT; antisense fAfGmAfAmGfAmCfCmUfUmGfCmAfGmCfUmUfCmCdT*dT) | 57 | 54 | 59 | 87
14 | XD-01846: AR siRNA with chemical modification, Id # 2975; sense X05387 (SEQ ID NO: 217), antisense X05388 (SEQ ID NO: 218) (sense mUmUfAmUfGmAfAmGfCmAfGmGfGmAfUmGfAmCfUdT*dT; antisense fAfGmUfCmAfUmCfCmCfUmGfCmUfUmCfAmUfAmAdT*dT) | 87 | 94 | 76 | 94
15 | XD-01844: AR siRNA with chemical modification, Id # 2962; sense X05383 (SEQ ID NO: 213), antisense X05384 (SEQ ID NO: 214) (sense mGmUfCmUfUmCfGmGfAmAfAmUfGmUfUmAfUmGfAdT*dT; antisense fUfCmAfUmAfAmCfAmUfUmUfCmCfGmAfAmGfAmCdT*dT) | 56 | 54 | 26 | 81
